Measured values from US20200390742A1, “CLINICALLY EFFICACIOUS ANTI-METHANOGENIC COMPOSITIONS AND USES” (Cedars-Sinai Medical Center, priority 2016, published 2020).
Values after ≈ are worked out from the molar mass of the structure shown. Read-outs that look alike come from different tables or passages of the source. Marks after values point to notes of the source that are not given here. Peptide text beside a SMILES is read from it.

Key:
[1] = system: IBS-C patients; settings: published trial, 12 weeks; drug arm; cited from earlier work
[2] = system: methane production by stool samples from IBS-C patients; experiment: Methane production by human stool in vitro; assay type: cell-based
Excerpt: Data are change from baseline (ΔCH4 ppm) in headspace methane. […] Error bars are SD. P values are significance of change from baseline (paired t-test).
The second principle, without wishing to be bound by theory, is to reduce the pre-systemic conversion of lovastatin lactone to the β-hydroxyacid metabolite. […] Conversion of lovastatin lactone to β-hydroxyacid occurs in stomach acid and through the action of plasma, intestinal and liver esterases; some conversion may also be catalysed by intestinal bacteria.
The potential methane-reducing effect of lovastatin lactone concentrations in the stool of healthy volunteers was estimated by comparison of stool concentrations to lovastatin lactone concentrations used to inhibit methane production in stool samples from an IBS-C patient in vitro.

[3] = physchem; settings: for solubility: Solubility (room temp)
Excerpt: Lovastatin was produced, analyzed and released using methodology known in the art.

[4] = system: M. smithii; experiment: M. smithii colonized high-fat diet rats, qPCR of bowel segments; assay type: in vivo, Sprague-Dawley rats
Experimental: The rats were assessed for increased M. smithii by qPCR before and after the diet, and then divided into 3 groups. […] Each group was gavaged daily for 10 days. Three day stool collections were performed to assess average stool wet weight and daily variability prior to commencing the high fat diet, after 7 weeks of high-fat diet, and the final days of the lovastatin gavage (still on high-fat diet). On day 10 of the gavage, rats were euthanized and DNA was extracted from contents of ligated bowel segments (duodenum, jejunum, ileum, cecum and left colon). qPCR was performed using primers for total luminal bacteria and M. smithii.

[5] = pylorus-ligated rats, within 30 minutes; cited from earlier work
[6] = cited from earlier work
[7] = system: human and rat fecal bacterial enzyme fractions; settings: 12 h incubation; cited from earlier work
[8] = cited from earlier work; remark: listed apart in the source
[9] = Binary stress testing of lovastatin with formulation excipients (HPLC); settings: alone, over a range of conditions
Experimental: The compatibility of lovastatin drug substance with formulation excipients was evaluated in binary stress testing studies where 1:1 mixtures of lovastatin and each excipient were stored for 7 days under different conditions of temperature and relative humidity (RH). Samples were analyzed by HPLC (based on USP methods) at day 0 and day 7.

[10] = stool samples from IBS-C patients in vitro
[11] = Cecum, 1.5 mg/rat daily for 10 days
[12] = Duodenum, 1.5 mg/rat gavage daily for 10 days
[13] = Jejunum, 1.5 mg/rat daily for 10 days
[14] = Left Colon, 1.5 mg/rat daily for 10 days

C[C@@H]1NC(=O)[C@@H]2CCCN2C(=O)[C@H](CC(N)=O)NC(=O)[C@@H]2CSSC[C@H](N)C(=O)N[C@H]3CSSC[C@H](NC1=O)C(=O)N[C@@H]([C@@H](C)O)C(=O)NCC(=O)N[C@H](C(=O)N[C@@H](Cc1ccc(O)cc1)C(=O)O)CSSC[C@H](NC(=O)[C@H](Cc1ccc(O)cc1)NC(=O)[C@H](CCC(=O)O)NC3=O)C(=O)N2 [Linaclotide] (HELM PEPTIDE1{C.C.E.Y.C.C.N.P.A.C.T.G.C.Y}$PEPTIDE1,PEPTIDE1,1:R3-6:R3|PEPTIDE1,PEPTIDE1,2:R3-10:R3|PEPTIDE1,PEPTIDE1,5:R3-13:R3$$$V2.0)
Abdominal Pain Response, % Subjects [1]: 49.5 (36.0) %
Bloating Response, % Subjects [1]: 43.2 (26.8) %
CSBM Response, % Subjects [1]: 48.2 (26.1) %
Diarrhea Incidence, % Subjects [1]: 19.3 (2.8) %
Overall Response, % Subjects [1]: 33.6 (17.4) %

CN1Cc2c(Cl)cc(Cl)cc2[C@H](c2cccc(S(=O)(=O)NCCOCCOCCNC(=O)NCCCCNC(=O)NCCOCCOCCNS(=O)(=O)c3cccc([C@@H]4CN(C)Cc5c(Cl)cc(Cl)cc54)c3)c2)C1 [Tenapanor]
Abdominal Pain Response, % Subjects [1]: 65.5 (48.3) %
Bloating Response, % Subjects [1]: 59.5 (41.6) %
CSBM Response, % Subjects [1]: 60.7 (33.7) %
Diarrhea Incidence, % Subjects [1]: 11.2 (0.0) %
Overall Response, % Subjects [1]: 50.0 (23.6) %

CC(C)C[C@H](NC(=O)[C@@H]1CSSC[C@@H]2NC(=O)[C@H](CC(C)C)NC(=O)[C@H](CCC(=O)O)NC(=O)[C@@H](NC(=O)[C@H](CCC(=O)O)NC(=O)[C@H](CC(=O)O)NC(=O)[C@@H](N)CC(N)=O)CSSC[C@H](NC(=O)[C@H](C)NC(=O)[C@H](C(C)C)NC(=O)[C@H](CC(N)=O)NC(=O)[C@H](C(C)C)NC2=O)C(=O)N[C@@H]([C@@H](C)O)C(=O)NCC(=O)N1)C(=O)O [Plecanatide] (HELM PEPTIDE1{N.D.E.C.E.L.C.V.N.V.A.C.T.G.C.L}$PEPTIDE1,PEPTIDE1,4:R3-12:R3|PEPTIDE1,PEPTIDE1,7:R3-15:R3$$$V2.0)
Diarrhea Incidence, % Subjects [1]: 4.3 (1.0) %
Overall Response, % Subjects [1]: 25.7 (15.9) %

CC(C)c1c(C(=O)Nc2ccccc2)c(-c2ccccc2)c(-c2ccc(F)cc2)n1CC[C@@H](O)C[C@@H](O)CC(=O)O [atorvastatin]
inhibition of methane production [2, 10]: ineffective

CCCCC(F)(F)[C@@]1(O)CC[C@H]2[C@@H](CC(=O)[C@@H]2CCCCCCC(=O)O)O1 [Lubiprostone]
Abdominal Pain Response, % Subjects [1]: 36.7 (25.2) %
Bloating Response, % Subjects [1]: 32.0 (25.1) %
Overall Response, % Subjects [1]: 26.3 (15.3) %

CC[C@H](C)C(=O)O[C@H]1C[C@@H](C)C=C2C=C[C@H](C)[C@H](CC[C@@H]3C[C@@H](O)CC(=O)O3)[C@H]21 [Lovastatin]
Solubility (room temp) [3]: methanol 28 mg/mL
solubility ([3]; organic solvent or mixture): 16000 µg/mL (≈ 39.6 mM)
solubility ([3]; water): 0.4 µg/mL (≈ 0.000989 mM)
inhibition of methane AUC0-270 ([2]; 0.2 mg/g stool, regression): 85-90%
methane AUC0-270 as percentage of the control value ([2]; 0.2 mg/g stool, regression): 10-15%
reduction of methane production ([2]; lovastatin lactone 0.04 mg/g stool, human stool in vitro): ~60%
inhibition of methane production ([2]; lovastatin lactone 0.21-0.25 mg/g stool, in vitro): ~90%
inhibition of methane production [2, 10]: only effective statin inhibitor
M. smithii/Total Bacteria [4, 11]: 0.20
M. smithii/Total Bacteria [4, 12]: 1.30
M. smithii/Total Bacteria ([4]; Ileum, 1.5 mg/rat daily for 10 days, listed as Lactone): 0.19*
M. smithii/Total Bacteria ([4]; Ileum, 1.5 mg/rat daily for 10 days, listed as lovastatin lactone): reduced
M. smithii/Total Bacteria [4, 13]: 0.12
M. smithii/Total Bacteria [4, 14]: 0.0029
intragastric dose exiting the gastric juice [5]: ~30%
pre-portal hydrolysis in vivo after oral administration [6]: ~10%
loss of lovastatin lactone [7]: 8-19%
absorption of orally-administered dose ([8]; human subjects, immediate release dosage form): ~31%
stability in binary stress testing [9]: stable

CC(C)c1nc(N(C)S(C)(=O)=O)nc(-c2ccc(F)cc2)c1/C=C/[C@@H](O)C[C@@H](O)CC(=O)O [rosuvastatin]
inhibition of methane production [2, 10]: ineffective

CC[C@H](C)C(=O)O[C@H]1C[C@@H](C)C=C2C=C[C@H](C)[C@H](CC[C@@H](O)C[C@@H](O)CC(=O)O)[C@H]21 [lovastatin β-hydroxyacid]
inhibition of methane production [2, 10]: ineffective
M. smithii/Total Bacteria [4, 11]: 0.14
M. smithii/Total Bacteria [4, 12]: 1.41
M. smithii/Total Bacteria [4, 13]: 0.29
M. smithii/Total Bacteria [4, 14]: 0.0024
intragastric dose exiting the gastric juice [5]: ~30%
absorption of orally-administered dose ([8]; human, in vivo, po): 82-100%
